Experimental data: patent publication US20250051321A1, “TRICYCLIC DERIVATIVE AND PREPARATION METHOD THEREFOR AND APPLICATION THEREOF” (SHANGHAI JEMINCARE PHARMACEUTICAL CO., LTD., priority 2021, published 2025)
Like-named read-outs stand apart in the source and are kept apart here.

How the values were obtained:
[1] = biological target: ATX (Homo sapiens (Human), UniProt Q13822); assay: ATX enzyme inhibition assay (Amplex UltraRed/choline oxidase/HRP, 16:0 Lyso PC substrate); assay type: biochemical
Method in brief: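 ATX (2× stock […]) preincubated with compound for 10 min at room temperature in assay buffer at pH 8.5 or 7.5. Reaction started with 16:0 Lyso PC, choline oxidase, HRP and Amplex UltraRed (2.5× working stock); fluorescence read kinetically (ex 550/em 590 nm) for 60 min.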

[2] = test system: plasma LPA 18:1 and LPA 18:2; assay: Human plasma ex vivo assay (LPA 18:1 / 18:2 by LC-MS/MS); assay type: biochemical; details: 37° C., 2 hours
Method in brief: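 Human plasma incubated 2 h at 37° C with compound (8 points, 1:3 dilution, top 10 μM, 0.1% DMSO), then quenched with 0.1% FA containing LPA 17:0 internal standard.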

[3] = Pharmacokinetic test in mice; assay type: in vivo, ICR mice; details: for AUC / C0 / half-life / clearance / Cmax / Tmax / bioavailability: male, ICR, mouse, plasma; for clearance: read-out: CL (mL/min/kg, IV)
Procedure: Dosage preparation: The dosing solution was prepared on the day of dosing. 2 mg of compound was weighed and dissolved in 5% DMSO+10% solutol+85% saline to prepare a solution for intravenous administration at a concentration of 0.2 mg/mL. 2 mg of compound was weighed and dissolved in 25% PEG 200+75% (0.5% MC) to obtain a solution for oral administration at a concentration of 1 mg/mL.
Six healthy male naïve ICR mice, weighing 25 to 30 g, were divided into two groups (intravenous and oral groups) with three in each group, and administered in a single dose. After 3 days of acclimatization, the mice were fasted overnight (10 to 12 hours) the night before the experiment, but had free access to water during the experiment, and the diet was resumed 4 hours after administration. After intravenous and oral administration, the timer was started. Blood was collected via the orbital venous plexus at the scheduled time points (IV&PO: 0.083, 0.25, 0.5, 1, 2, 4, 6, 8, and 24 hours). 40 μL of whole blood was collected at each point and added to a 1.5 mL EP tube containing sodium heparin. The collected whole blood was vibrated twice on a vortex mixer, mixed well, placed on wet ice, and centrifuged at 8000 rpm for 5 minutes at 4° C. within 1 hour. The supernatant plasma was stored in a −80° C. freezer until processing for analysis.

[4] = assay buffer pH 8.5, read-out: IC50 (nM) pH 8.5
[5] = LPA 18:1, read-out: Human plasma ex vivo assay IC50 (18:1 LPA)
[6] = LPA 18:2, read-out: Human plasma ex vivo assay IC50 (18:2 LPA)
[7] = 5 mg/kg, PO - 5 mpk vs IV - 1 mpk
[8] = assay buffer pH 7.5, read-out: IC50 (nM) pH 7.5

SMILES | IC50 [1, 4] [nM] | IC50 [2, 5] [nM] | IC50 [2, 6] [nM] | AUC ([3]; 1 mg/kg, IV - 1 mpk) [ng·h/mL] | C0 ([3]; 1 mg/kg, IV - 1 mpk) [ng/mL] | half-life ([3]; 1 mg/kg, IV - 1 mpk) [h] | clearance ([3]; 1 mg/kg, IV - 1 mpk) [mL/min/kg] | AUC ([3]; 5 mg/kg, PO - 5 mpk) [ng·h/mL] | Cmax ([3]; 5 mg/kg, PO - 5 mpk) [ng/mL] | Tmax ([3]; 5 mg/kg, PO - 5 mpk) [h] | half-life ([3]; 5 mg/kg, PO - 5 mpk) [h] | bioavailability [3, 7] [%] | further results
CN(c1nc(-c2ccc(F)cc2)c(C#N)s1)c1c2c(nc3c(F)cc(N4CC5(CN(C(=O)[C@H]6CCOC6)C5)C4)cc13)[C@H](O)CC2 (single isomer, unassigned) [Example E5-a] | 22.7 | 294 | 306 |  |  |  |  |  |  |  |  |  | AUCi ([3]; IV - 1 mpk): 1986 ng·h/mL; C0 (IV) ([3]; IV - 1 mpk): 1882 ng/mL; CL (mL/min/kg, IV) ([3]; IV - 1 mpk): 8.54 mL/min/kg; T1/2 ([3]; IV - 1 mpk): 0.95 h; AUCi ([3]; PO - 10 mpk): 44380 ng·h/mL; Cmax (PO) ([3]; PO - 10 mpk): 7763 ng/mL; T1/2 ([3]; PO - 10 mpk): 2.34 h; Tmax (hr, PO) ([3]; PO - 10 mpk): 0.5 h; Bioavailability (%) ([3]; PO - 10 mpk vs IV - 1 mpk): 223%
CN(c1nc(-c2ccc(F)cc2)c(C#N)s1)c1c2c(nc3c(F)cc(N4CC5(CN(C(=O)C(C)(C)O)C5)C4)cc13)[C@@H](O)CC2 (single isomer, unassigned) [Example E16-a] | 20.1 | 381 | 383 | 5540 | 3550 | 1.87 | 3.07 | 17000 | 3010 | 0.33 | 2.22 | 61.3 | 
CN(c1nc(-c2ccc(F)cc2)c(C#N)s1)c1c2c(nc3c(F)cc(N4CC5(CN(C(=O)C(C)(C)O)C5)C4)cc13)[C@](C)(O)CC2 (single isomer, unassigned) [Example E35-b] |  | 457 | 407 | 6770 | 2920 | 2.51 | 2.51 | 14700 | 3140 | 1.58 | 2.05 | 43.5 | 
CN(c1nc(-c2ccc(F)cc2)c(C#N)s1)c1c2c(nc3c(F)cc(N4CC5(CN(C(=O)[C@H]6CCOC6)C5)C4)cc13)CCC2 [Example C1] | 36.3 | 521 | 438 |  |  |  |  |  |  |  |  |  | IC50 [1, 8]: 63.5 nM; AUCi ([3]; IV - 1 mpk): 5701 ng·h/mL; C0 (IV) ([3]; IV - 1 mpk): 3141 ng/mL; CL (mL/min/kg, IV) ([3]; IV - 1 mpk): 2.92 mL/min/kg; T1/2 ([3]; IV - 1 mpk): 2.15 h; AUCi ([3]; PO - 5 mpk): 7392 ng·h/mL; Cmax (PO) ([3]; PO - 5 mpk): 1903 ng/mL; T1/2 ([3]; PO - 5 mpk): 2.08 h; Tmax (hr, PO) ([3]; PO - 5 mpk): 1.0 h; Bioavailability (%) ([3]; PO - 5 mpk vs IV - 1 mpk): 26%
CN(c1nc(-c2ccc(F)cc2)c(C#N)s1)c1c2c(nc3c(F)cc(N4CC5(CN(C(=O)[C@@H]6CCOC6)C5)C4)cc13)CC2 [Example C8] | 27.5 | 168 | 191 | 2080 | 1800 | 1.23 | 8 | 7940 | 2920 | 0.25 | 2.4 | 76.2 | IC50 [1, 8]: 67.3 nM
CN(c1nc(-c2ccc(F)cc2)c(C#N)s1)c1c2c(nc3ncc(N4CC5(CN(C(=O)[C@@H]6CCOC6)C5)C4)cc13)CC2 [Example C17] | 25.9 | 318 | 318 |  |  |  |  | 16900 | 4280 | 0.5 | 2.13 |  | 
CN(c1nc(-c2ccc(F)cc2)c(C#N)s1)c1c2c(nc3c(F)cc(N4CC5(CN(C(=O)[C@H]6CCOC6)C5)C4)cc13)COC2 [Example C18] | 15.2 |  |  | 3700 | 1940 | 1.82 | 4.59 | 11000 | 3330 | 0.58 | 2.79 | 59.7 | 
Cc1cc(N2CC3(CN(C(=O)C(C)(C)O)C3)C2)cc2c(N(C)c3nc(-c4ccc(F)cc4)c(C#N)s3)c3c(nc12)CC3 [Example C26] |  | 588 | 435 |  |  |  |  | 124000 | 8390 | 4.08 | 5.13 |  | 
Cc1cc(N2CC3(CN(C(=O)C(C)(C)O)C3)C2)cc2c(N(C)c3nc(-c4ccc(F)cc4)c(C#N)s3)c3c(nc12)CCO3 [Example C27] |  |  |  |  |  |  |  | 27600 | 2010 | 6.67 | 3.98 |  | 
CN(c1nc(-c2ccc(F)cc2)c(C#N)s1)c1c2c(nc3c(F)cc(N4CC5(CN(C(=O)C(C)(C)O)C5)C4)cc13)CC2 [Example C28] |  | 545 | 574 | 14100 | 2110 | 3.63 | 1.21 | 125000 | 10200 | 3 | 2.82 | 176 | 
Cc1cc(N2CC3(CN(C(=O)C(C)(C)O)C3)C2)nc2c(N(C)c3nc(-c4ccc(F)cc4)c(C#N)s3)c3c(nc12)CC3 [Example C29] |  | 251 | 220 | 12600 | 2600 | 2.73 | 1.39 | 36500 | 3640 | 0.67 | 1.89 | 57.7 | 
Cc1cc(N2CC3(CN(C(=O)C(C)(C)O)C3)C2)cc2c(N(C)c3nc(-c4ccc(F)cc4)c(C#N)s3)c3c(nc12)COC3 [Example C31] |  |  |  |  |  |  |  | 32300 | 3480 | 0.42 | 3.77 |  | 
